Assay results published in US20260207591A1, “CRYSTAL FORM OF FLUORINE-SUBSTITUTED INDAZOLE COMPOUND AND USE THEREOF” (SUNSHINE LAKE PHARMA CO., LTD., priority 2022, published 2026).

Assays:
[1] = Crystal form conversion in solvents; type: physicochemical; conditions: solvents such as ethanol
[2] = Light-exposure test (stability study); type: physicochemical; conditions: visible 4500 lx±500 lx and UV, 30 days; for Purity (%): HPLC
Description: (§1) Expose the sample to visible light (4500 lx±500 lx) and UV light (energy ≥0.7 W·h/m^2) for 30 days. Collect samples at 0, 5, 10, 15, and 30 days for analysis according to the key stability test items. Observe any color changes and determine purity by HPLC.

[3] = High-humidity test (stability study); type: physicochemical; conditions: for Purity (%): HPLC
Protocol: (§2) Place an appropriate amount of the test sample from one batch in a flat weighing bottle, spreading it into a thin layer ≤5 mm thick. Store at 25° C. and 90%±5% relative humidity (RH) for 30 days. Collect samples at 0, 5, 10, and 30 days for analysis according to the key stability test items. Observe any color changes and determine purity by HPLC.

[4] = Stability studies, overall conclusion; type: physicochemical
Protocol: Example 5 Stability Studies
as §2, with “sample” for “sample from one batch”, “60° C.±2°” for “25°”, “C.” for “C. and 90%±5% relative humidity (RH)”
as §2, §1

[5] = Hygroscopicity test by dynamic vapor sorption (DVS); type: physicochemical; conditions: for Weight Gain at 60% RH (%) / Weight Gain at 80% RH (%) / Weight Gain at 95% RH (%): DVS, 25° C.; for resistance to deliquescence: high-humidity conditions
Protocol: The hygroscopicity of the present invention was determined using a DVS INT-Std dynamic vapor and gas sorption analyzer from Surface Measurement Systems Ltd. (UK) with the following parameters: humidity test range: 0%-95%, gas flow: 200 mL/min, temperature: 25° C., test points: one measurement point every 5% humidity increase.
An appropriate amount of the test sample was taken, and its hygroscopicity was measured using a dynamic vapor sorption (DVS) instrument. The classification criteria for hygroscopicity characteristics and moisture absorption weight gain (as per Appendix 9103 “Guidelines for Hygroscopicity Testing of Drugs” from the Chinese Pharmacopoeia 2020 Edition, test conditions: 25° C.±1° C., 80%±2% relative humidity (RH)) are described in Table 2 below: […]

[6] = High-temperature test (stability study); type: physicochemical
Protocol: (1) High-Temperature Test:
as §2, with “sample” for “sample from one batch”, “60° C.±2°” for “25°”, “C.” for “C. and 90%±5% relative humidity (RH)”

Solubility (HPLC) = type: physicochemical
Protocol: The solubility of the present invention was determined using an Agilent 1200 High Performance Liquid Chromatograph DAD/VWD detector with an Agilent XDB-C18 model (4.6×50 mm, 5 μm). Detection wavelength of 266 nm, flow rate of 1.0 mL/min, the column temperature of 35° C., mobile phase A: acetonitrile—0.01 M ammonium acetate=10:90 (V:V) analysis methods: acetonitrile-mobile phase A=70:30 (V:V), running time: 10 minutes.

[7] = Pharmacokinetics test in Beagle dogs, oral capsules; type: in vivo; conditions: dog, plasma, male Beagle dogs, 5 mg/kg
Protocol: Male Beagle dogs of 8-12 kg were divided into 3 groups, 3 dogs in each group, and capsules containing test samples were orally administered at a dose of 5 mg/kg, and blood was collected at time points of 0.25, 0.5, 1.0, 2.0, 4.0, 6.0, 8.0 and 24 h. Standard curve was plotted based on concentrations of the samples in a suitable range, the concentration of the test sample in the plasma sample was measured and quantified by AB SCIEX API4000-type LC-MS/MS at MRM mode. Pharmacokinetic parameters were calculated according to drug concentration-time curve using a noncompartmental method by WinNonLin 6.3 software.

[8] = 0 day (start of stability tests)
[9] = High-Humidity, 25° C., 90%±5% RH, 30 days

crystal form conversion in solvents [1] | Outward [2] | Purity (%) [2] | Outward [3, 8] | Purity (%) [3, 8] | Outward [3, 9] | Purity (%) [3, 9] | stability under various storage conditions [4] | Weight Gain at 60% RH (%) [5] | Weight Gain at 80% RH (%) [5] | Weight Gain at 95% RH (%) [5] | resistance to deliquescence [5] | polymorphic transformation under high-temperature conditions [6] | solubility (in words) (Solubility (HPLC)) | crystal structure stability (polymorphic transition) [4] | AUC(0-t) [7] | Cmax [7] | Tmax [7] | SMILES
exhibit crystal form conversion | – | – | – | – | – | – | – | – | – | – | – | – | – | – | – | – | – | COC(=O)Nc1c(N)nc(-c2nn(Cc3ccccc3F)c3c(F)cccc23)nc1N [Crystal Form I, methyl (4,6-diamino-2-(7-fluoro-1-(2-fluorobenzyl)-1H-indazol-3-yl)pyrimidin-5-yl)carbamate]
– | Pale yellow | 99.75% | Pale yellow | 99.76% | Pale yellow | 99.78% | excellent stability | 0.09% | 0.14% | 0.25% | highly resistant to deliquescence | – | – | – | – | – | – | COC(=O)Nc1c(N)nc(-c2nn(Cc3ccccc3F)c3c(F)cccc23)nc1N [Crystal Form III, methyl (4,6-diamino-2-(7-fluoro-1-(2-fluorobenzyl)-1H-indazol-3-yl)pyrimidin-5-yl)carbamate]
exhibit crystal form conversion | Pale yellow | 99.36% | Off-white | 99.52% | Off-white | 99.51% | – | – | – | – | – | undergoes polymorphic transformation | – | – | – | – | – | COC(=O)Nc1c(N)nc(-c2nn(Cc3ccccc3F)c3c(F)cccc23)nc1N [Crystal Form V, methyl (4,6-diamino-2-(7-fluoro-1-(2-fluorobenzyl)-1H-indazol-3-yl)pyrimidin-5-yl)carbamate]
– | Off-white | 99.75% | Off-white | 99.77% | Off-white | 99.80% | excellent stability | 0.15% | 0.20% | 0.26% | highly resistant to deliquescence | – | good solubility | less prone to polymorphic transition | 12100 ng·h/mL | 1140 ng/mL | 10 h | COC(=O)Nc1c(N)nc(-c2nn(Cc3ccccc3F)c3c(F)cccc23)nc1N [Crystal Form XI, methyl (4,6-diamino-2-(7-fluoro-1-(2-fluorobenzyl)-1H-indazol-3-yl)pyrimidin-5-yl)carbamate]
